# Measured values reported in BindingDB's records for doi:10.1186/s12858-015-0048-3 (Texas Wesleyan University, 2015).
# Where “and” joins values, the source holds several entries; their conditions need not be identical. Identical values can stand only once.
# Molecular target: T1, Dual specificity protein phosphatase 5 [180-384] (Homo sapiens, UniProt Q16690)
# T1 construct: 180-384
# T1 sequence (Q16690 whole entry): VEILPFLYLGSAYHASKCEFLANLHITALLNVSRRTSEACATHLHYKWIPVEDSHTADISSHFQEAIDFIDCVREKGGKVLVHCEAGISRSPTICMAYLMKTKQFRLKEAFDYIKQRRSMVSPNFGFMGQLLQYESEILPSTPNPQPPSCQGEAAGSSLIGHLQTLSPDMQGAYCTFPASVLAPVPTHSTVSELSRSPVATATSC
# Experiment: p-NPP Assay
# Details: 25 °C
# Method: For the 96-well plate validation assay, sodium orthovanadate (Sigma Aldrich) was utilized as a positive control for inhibition [Swarup et al., Biochem. Biophys. Res. Commun., 107:1104-9] at a final concentration of 10 μM, to completely block DUSP5(WT) enzymatic activity. All plate assays were performed in standard 96-well clearbottom plates (Thermo Scientific Nunc) with a total assay volume of 200 μL, using a SpectraMax M5 Microplate Reader (Molecular Devices). The plate validation assay was performed with replicate columns of positive control wells, negative control wells and blank wells. Blank columns contained only buffer and pNPP. Negative control (uninhibited) contained buffer, pNPP, and DUSP5PD(WT); and, positive control contained the same components,but also contained 10 μM sodium orthovanadate. The plate was then shaken and allowed to equilibrate in the spectrophotometer at 25 °C for 30 min. After incubation, 4 μL of a 50 μM enzyme stock was dispensed into appropriate wells utilizing a single-channel pipette. This produced a final enzyme concentration of1 μM. Before a read was taken, the plate was shaken for five seconds. The initial rate for the DUSP5PD(WT) reaction was linear for approximately 90 min;and, the plate was kept in the spectrophotometer at 25 °C for an additional 80 min after the kinetic read. The endpoint reading was subsequently taken at 90 min after initiation of reaction.
row,IC50,SMILES
1,5.1 mM and 26 mM,O=S(=O)(O)c1ccc2[nH]c3c(S(=O)(=O)O)cc(S(=O)(=O)O)cc3c2c1 [RR505]
2,0.044 mM,Cc1ccc(C(=O)Nc2ccc(S(=O)(=O)O)c3cc(S(=O)(=O)O)cc(S(=O)(=O)O)c23)cc1NC(=O)c1cccc(NC(=O)Nc2cccc(C(=O)Nc3cc(C(=O)Nc4ccc(S(=O)(=O)O)c5cc(S(=O)(=O)O)cc(S(=O)(=O)O)c45)ccc3C)c2)c1 [Suramin hexasodium]
3,6.4 mM,"O=S(=O)(O)c1ccc2c(S(=O)(=O)O)cc(S(=O)(=O)O)cc2c1 [naphthalene-1,3,6-trisulfonate(3-)]"
